Test results reported in patent US20070087400A1, “Covalent tethering of functional groups to proteins and substrates therefor” (priority 2004, published 2007).
Like-named read-outs stand apart in the source and are kept apart here.

Legend:
[1] = target: tetracysteine domain in a recombinant protein; details: cited from earlier work
[2] = system: DhaA.H272 mutants, i.e. H272F/G/A/Q; assay: In vitro binding and pretreatment blocking, SDS-PAGE; parameters: species or system Rhodococcus rhodochrous
Text: FIG. 10 illustrates that pretreatment of a mutant DhaA with a substrate, biotin-C10H21NO2—Cl, blocks binding of another substrate. DhaA.WT-lanes 1 and 2; DhaA.H272 mutants: F, lanes 3 and 4; G, lanes 5 and 6; A, lanes 7 and 8; and Q, lanes 9 and 10. Samples 2, 4, 6, 8, and 10 were pretreated with biotin-C10H21NO2—Cl.
(§1) Then the proteins were resolved on SDS-PAGE.

CHO-K1 cells [3] = assay: Toxicity of Cl-alkanes, CellTiter-Glo Luminescence Cell Viability Assay; type: cell-based
Procedure: To study the toxicity of Cl-alkanes, CHO-K1 cells were plated in 96 well plates to a density of 5,000 cells per well. […] Viability of the cells was measured with CellTiter-Glo™ Luminescence Cell Viability Assay (Promega) according to the manufacturer's protocol. Generally, 100 μl of CellTiter-Glo™ reagent was added directly to the cells and the luminescence was recorded at 10 minutes using a DYNEX MLX microtiter plate luminometer.

CHO-K1 cells [4] = assay: Permeability of cell membrane to substrates (uptake and wash-out)
Procedure: (§2) Fresh media was then added to cells, and the cells were returned to the CO2 incubator at 37° C. The level of fluorescence in cells in 96 well plates was measured on fluorescent plate reader CytoFluor II (Beckman) at Eex/Eem equal 480/520 nm and 540/575 nm for carboxyfluorescein-and carboxytetramethylrhodamine-modified substrates, respectively. Fluorescent images of the cells were taken on inverted epifluorescent microscope Axiovert-100 (Carl Zeiss) with filter sets appropriate for detection of FITC and carboxytetramethylrhodamine.

E. coli = assay: Permeability of plasma membrane of prokaryotic cells to substrates
[5] = Tethering of R.Luc-DhaA fusions to streptavidin-coated plates via biotin Cl-alkane; details: pretreatment of R.Luc-connector-DhaA.H272F
Procedure: Translated proteins were contacted with biotin-C10H21N1O2—Cl substrate at 25 μM (final concentration), for 60 minutes at room temperature. Unbound biotin-C10H21N1O2—Cl was removed by gel-filtration on Sephadex G-25 prepackaged columns (Amersham Biosciences). Collected fractions of R.Luc-connector-DhaA fusions were placed in SA-coated 96-well plate for 1 hour at room temperature, unbound proteins were washed out and luciferase activity was measured.

DhaA.WT = DhaA.WT (Rhodococcus rhodochrous, UniProt P0A3G2); assay: Hydrolysis of Cl-alkanes, pH-indicator dye (phenol red) assay; type: biochemical
Text: To study the effect of a point mutation on the activity of DhaA (WT or mutant) hydrolysis of Cl-alkanes, a pH-indicator dye system as described by Holloway et al. (1998) was employed.

streptavidin = streptavidin (Streptomyces avidinii, UniProt P22629); details: surface plasmon resonance; cited from earlier work
DhaA.H272F = DhaA.H272F (Rhodococcus rhodochrous, UniProt P0A3G2, H272F); assay: In vitro binding of Cl-alkanes with functional groups, SDS-PAGE with fluoroimager or HRP-streptavidin; details: dose dependent, 0.04-125 μM tested
Text: as §1

CHO-K1 cells [6] = system: CHO-K1 cells
Procedure: as §2

Q: For `O=C1OC2(c3ccccc31)c1ccc(O)c([As]3SCCS3)c1Oc1c2ccc(O)c1[As]1SCCS1` [FLASH, 4′,5′-bis(1,3,2-dithioarsolan-2-yl)fluorescein], which dissociation constant [1] is on record?
A: The dissociation constant was “nanomolar or lower”.

Q: For “N-{2-[2-(6-Chlorohexyloxy)-ethoxy]-ethyl}-tetramethylrhodamine-5-(and -6)-amide”, which “binding to DhaA.H272F/G/A/Q” value [2] is on record?
A: Its value is “bound”.

Q: What about the “toxicity after a 4 hour treatment” value (CHO-K1 cells [3]; 100 μM (the highest concentration tested)) of the same compound?
A: Its value is “no toxicity”.

Q: And the maximum non-toxic concentration (CHO-K1 cells [3]; 24 hour treatment)?
A: Its maximum non-toxic concentration is 6.25 µM.

Q: What about the IC50 (CHO-K1 cells [3]; 24 hour treatment, read-out: IC50 of reduction of relative luminescence) of the same compound?
A: The IC50 was ~100 µM.

Q: What about the “permeability of plasma membrane of CHO-K1 cells” value (“permeability … of CHO-K1 cells” for short) (CHO-K1 cells [4]) of the same compound?
A: Its value is “permeable”.

Q: What about the “permeability of plasma membrane of E. coli” value (E. coli) of the same compound?
A: The value was “permeable”.

Q: And the “decrease of efficiency of capturing by pretreatment with non-biotinylated substrate” value [5]?
A: Its value is “about 80%”.

Q: Which “initial rate of hydrolysis (IRH)” value (DhaA.WT; first 60 seconds after enzyme addition) does the source give for `OCCCCCCCCCCCl` [1-Cl-alkane-10-decanol] here?
A: The value was “much higher than the IRH of 1-Cl-decane”.

Q: For `CCCCCl` [1-Cl-butane], which “activity of the wild-type enzyme with the substrate” value (DhaA.WT; 0.1 mg/ml of enzyme and 10 mM substrate at pH 7.0-8.2) is on record?
A: Its value is 5 units/mg of protein.

Q: Which on-rate (streptavidin) does the source give for `O=C(O)CCCC[C@@H]1SC[C@@H]2NC(=O)N[C@@H]21` [biotin] here?
A: The on-rate was 5e+06 M⁻¹ s⁻¹.

Q: For `O=C(CCCC[C@@H]1SC[C@@H]2NC(=O)N[C@@H]21)NCCOCCOCCCCCCCl` [biotin-C10H21NO2—Cl], which “concentration at which binding to DhaA.H272F could be detected” value (DhaA.H272F) is on record?
A: The value was 0.2 µM.

Q: What about the “permeability … of CHO-K1 cells” value (CHO-K1 cells [6]) of the same compound?
A: Its value is “permeable”.

Q: And the “permeability of plasma membrane of E. coli” value (E. coli)?
A: Its value is “permeable”.

Q: Which “permeability … of CHO-K1 cells” value (CHO-K1 cells [4]) does the source give for `O=C(NCCOCCOCCCCCCCl)c1ccc(-c2c3ccc(=O)cc-3oc3cc(O)ccc23)c(C(=O)O)c1` [N-{2-[2-(6-Chlorohexyloxy)-ethoxyl-ethyl}-fluorescein-5-amide] here?
A: Its value is “did not cross the plasma membrane”.
